Measurements: patent US20080085563A1, “Detection of Gadolinium Chelates” (IDEXX LABORATORIES, INC., priority 2006, published 2008)
Where a SMILES comes first, the peptide text is derived from it.

Tests used:
[1] = weak acid of low-pH buffering system; first value; cited from earlier work
[2] = Masking of calcium interference in the gadolinium-arsenazo III assay
Excerpt: For instance, while calcium interference decreases exponentially with pH, it is not completely eliminated. In addition, the affinity of gadolinium for arsenazo dye decreases with pH, reducing both linearity and sensitivity of gadolinium response. In one aspect, the method of the invention allows for a pH window where the pH is high enough to allow highly efficient measurement of gadolinium chelate while reducing calcium interference by 99% relative to its maximal binding to Arsenazo at pH 6. Nonetheless, even within this optimally selective pH window, interference from both calcium and ferric ions is substantial. To remedy this persistent residual calcium interference, in another aspect of the invention, the compound HDMP, commonly used as an oral iron chelator for treatment of thalassemia (iron overload), is added to the reagent of the invention to effectively mask interference from both calcium and ferric ions without substantially reducing gadolinium assay response. In general, chelating agents, including EDTA, EGTA, TTHA, EDTPO, phenanthroline, and 8-hydroxyquinoline have a greater affinity for rare earth metals, such as gadolinium, than for calcium. […] This is obtained by subtracting the absorbance of each solution at 750 nm from its absorbance at 654 nm, reducing interference from wavelength-independent absorbance due to sample turbidity.

[3] = Masking of ferric ion interference in the gadolinium-arsenazo III assay; settings: 70 mM HDMP in reagent
Experimental: In one aspect of the invention, the reagent includes HDMP. For example, a reagent of the invention can contain about 10 to about 2000 mM HDMP. In various aspects, the reagent contains about 10 to about 800 mM HDMP, and more particularly about 70 mM HDMP. […] Higher levels of HDMP may be selected to further remove calcium and iron interference based upon analytical sensitivity, matrix effects (e.g., diet, drugs, toxicants, […] icterus), solubility, sample quality (e.g., hemolysis) and storage stability. […] The ferric sulfate increased the net absorbance of the solution ([…] nm minus A750 nm). This amount of ferric ion is approximately 10 times the amount that would be contributed by 0.07 mL of a normal canine serum sample.

[4] = Effect of masking agent on gadolinium response in the arsenazo III assay; settings: optimal amount of HDMP, pH 2.4
Excerpt: In general, chelating agents, including EDTA, EGTA, TTHA, EDTPO, phenanthroline, and 8-hydroxyquinoline have a greater affinity for rare earth metals, such as gadolinium, than for calcium. HDMP, however, is unusual in its ability to bind calcium preferentially over gadolinium. […] This essentially, although not completely, eliminates the interference by calcium with the method of the invention. […] In one aspect of the invention, the reagent includes HDMP. For example, a reagent of the invention can contain about 10 to about 2000 mM HDMP. In various aspects, the reagent contains about 10 to about 800 mM HDMP, and more particularly about 70 mM HDMP. […] Higher levels of HDMP may be selected to further remove calcium and iron interference based upon analytical sensitivity, matrix effects (e.g., diet, drugs, toxicants, […] icterus), solubility, sample quality (e.g., hemolysis) and storage stability. […] Commercial […]®, Berlex Laboratories, Wayne N.J.) ranging from 50-400 μM was added to 0.07 mL of canine serum. The canine serum was added to the arsenazo III reagent in varying amounts. […] This is obtained by subtracting the absorbance of each solution at 750 nm from its absorbance at 654 nm, reducing interference from wavelength-independent absorbance due to sample turbidity.

Compound | Acid pKa [1] | calcium masked ([2]; 70 mM HDMP in reagent) [%] | reduction in calcium interference ([2]; optimal amount of HDMP, pH 2.4) | ferric ion masked [3] | reduction in gadolinium signal [4]
O=C1CC(=O)NC(=O)N1 [Barbituric acid] | 4.04 | – | – | – | –
Cc1c(O)c(=O)ccn1C [HDMP, 3-hydroxy-1,2-dimethyl-4(1H)-pyridone] | – | 87 | greater than 90% | greater than 95% | less than 10%
NCC(=O)NCC(=O)O [Diglycine] (H-Gly-Gly-OH) | 3.14 | – | – | – | –
